{"source": "paper PMC12624434", "about": "(ACS Pharmacology & Translational Science, 2025)", "key": {"[1]": {"system": "vascular permeability of perfused mouse retina blood vessels", "test": "Ex vivo retina permeability assay (sulforhodamine B extravasation)", "type": "cell-based", "text": "C57Bl/6J mice were culled through CO2 overdose before proceeding with the cannulation of the common carotid arteries and perfusion of the vasculature, as previously described. Each eye was subsequently removed and enucleated. The retina was isolated with the attached sclera, flattened onto a silicone base (SYLGARD 184, Merck), and held in position by a metal ring and pins. Retinal explants were visualized with an Olympus 10× objective on an upright Axiophot fluorescence microscope (Zeiss) and continuously superfused with Krebs solution (124 mM NaCl, 5 mM KCl, 2 mM MgSO4, 22 mM […], 0.125 mM NaH2PO4 and 2 mM CaCl2, pH 7.4) supplemented with 5 mM glucose and 0.1% BSA w/v. A radial vein was injected with 1 mg/mL sulforhodamine B (479 Da; Merck) in Krebs solution using a glass needle to visualize the vasculature under a TRITC filter with an Olympus 40× water immersion objective. For permeability measurements, the fluorescence of a selected microvessel was recorded continuously by time-lapse imaging with a CCD camera (Hamamatsu) and HCImageLive software (Hamamatsu) for at least 30 s to obtain a baseline. VEGFA164 or EG00229 in Krebs solution were then added dropwise onto the retina. […] Time-lapse series were analyzed using ImageJ (NIH Bethesda). […] Permeability measurements from at least three different ex vivo retinal preparations were combined and expressed as mean ± SD. […]"}, "NRP1 b1 domain": {"target": "T1, NRP1 b1 domain (Homo sapiens, UniProt O14786)", "T1 construct": "with the purified recombinant NRP1 b1 domain immobilized on the chip; inferred from Ni-NTA capture), TEV-cleavable (cleaved yes); made in house; host or cells: E. coli Rosetta (DE3)", "T1 sequence (O14786 275-424 limits assumed)": "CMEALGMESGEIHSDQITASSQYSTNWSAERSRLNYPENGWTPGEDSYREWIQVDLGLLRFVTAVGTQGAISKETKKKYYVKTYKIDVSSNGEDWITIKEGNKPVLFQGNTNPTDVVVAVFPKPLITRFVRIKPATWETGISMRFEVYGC", "test": "SPR binding to immobilized NRP1 b1 domain (Biacore 4000, CM5 chip)", "conditions": "Figure 2B; read-out: KD (kinetics)"}, "[2]": {"system": "T180/Y182 phosphorylated p38 (P-p38) in retinal endothelium", "test": "VEGFA-induced p38 phosphorylation in ex vivo mouse retina (immunostaining)", "type": "cell-based", "description": "Retinae from C57Bl/6J mice were fixed in 4% formaldehyde in PBS for 1 h and washed three times with PBS. After 1 h in blocking buffer (3% Triton X-100, 1%1% Tween and 0.5% BSA in 2× PBS), retinae were immunostained by incubation with rabbit anti-P-p38 MAPK (Thr180/Tyr182) antibody (Cell Signaling) and biotin-conjugated Isolectin B4 (IB4, Merck) overnight at 4 °C, followed by Alexa Fluor 555–conjugated goat antirabbit antibodies (Invitrogen) and Alexa Fluor 488-conjugated streptavidin (Invitrogen) respectively for 1 h at rt. Images were acquired with a Zeiss Axioskop 2 microscope, using a ph3 Plan-Apochromat 63×/1.40 oil objective, Hamamatsu camera and the HCImage software. Each image was acquired as an RGB color image and then processed with ImageJ software version 1.52a (NIH Bethesda). Channels were split to separate the IB4 staining (green channel) from the P-p38 staining (red channel). The threshold function was used on the IB4 image to determine the area of the vessels and to generate a mask that was restored in the red channel image to measure the area of the vessels positive to P-p38 staining. The P-p38 staining area was normalized against the area stained with IB4. Three retinae from three different mice per condition were used for analysis. One-way ANOVA was used to compare the different treatments."}, "[3]": {"system": "VEGFA-induced mechanical allodynia in rats", "test": "VEGFA-induced mechanical allodynia (von Frey), intraplantar injection", "type": "in vivo, rat", "conditions": "30 μM coinjected with VEGFA165 10 nM, 50 μL intraplantar; male and female rats", "description": "(§1) The procedure was performed as reported previously. Briefly, rats were gently restrained in a fabric cloth and given an intraplantar injection in the hind-paw containing VEGFA165 (10 nM) and compound (EG00229 or 12h, at 30 or 10 μM) alone or in combination in 50 μL of PBS vehicle (NaCl 137 mM, KCl 2.5 mM, Na2HPO4 10 mM, and KH2PO4 1.8 mM), using a 31G needle."}, "[4]": {"system": "VEGFA-induced aversion to mechanical stimuli in rats", "test": "Conditioned place aversion (CPA) to 10 g vF stimulation after VEGFA", "type": "in vivo, rat", "description": "as §1\nThe experiments were conducted in a two-chamber device based on the protocols from and as previously described. The protocol includes 4 × 10 min of sequential tests of preconditioning (10 min), conditioning (2 × 10 min) and testing (10 min). During preconditioning, the animal is allowed free access to two connected chambers (30 × 30 × 19 cm), each associated with a scented lip-balm applied to the walls. Immediately following preconditioning, a divider was applied between the chambers, and the rats were conditioned to either stimuli or no-stimuli for 10 min in each chamber. The stimuli consisted of repeated stimulation with a 10 g VF-filament every 30 s for the 10 min that the subject was contained in that chamber, while no stimuli (NS) was applied in the other chamber. The order and side of conditioning was alternated between subjects. Following the conditioning, the divider was removed, and the rat was allowed free access to both chambers for the 10 min test. Animal movements in each chamber were recorded by a camera above, and the duration of time spent in each chamber was recorded during preconditioning and test phase. Decreased time spent in a chamber during the test versus preconditioning indicated avoidance for that chamber and was calculated as a CPA-score: time in VF-chamber during preconditioning – time in VF-chamber during test."}}, "note": "Entries after “also recorded” stand apart in the source; their conditions may differ."}
{"smiles": "N=C(N)NCCC[C@H](NC(=O)c1sccc1NS(=O)(=O)c1cc(NCc2csc(N3CCNCC3)n2)cc2cccnc12)C(=O)O.O=CO", "note": "[Compound 12h, (2S)-5-Guanidino-2-[[3-[[6-[(2-piperazin-1-ylthiazol-4-yl)-methylamino]-8-quinolyl]-sulfonylamino]-thiophene-2-carbonyl]-amino]-pentanoic Acid, Formic Acid]", "values": [{"measurement": "effect on VEGFA-induced dye extravasation", "setting": "[1]; 30 μM, 15 min preincubation of retinal explants", "value": "significantly reduced VEGFA-induced dye extravasation"}, {"measurement": "effect on vascular permeability, alone", "setting": "[1]; compound alone, ex vivo mouse retina", "value": "had no effect on vascular permeability"}, {"measurement": "Kd", "setting": "NRP1 b1 domain", "value": 346, "unit": "nM"}, {"measurement": "p38 phosphorylation when added alone", "setting": "[2]; 30 μM alone, 5 min", "value": "did not induce p38 phosphorylation"}, {"measurement": "effect on VEGFA-induced p38 phosphorylation in retinal endothelium", "setting": "[2]; 30 μM, 15 min prior to VEGFA165 stimulation", "value": "prevented VEGFA-induced p38 phosphorylation"}, {"measurement": "effect on VEGFA-induced mechanical allodynia (paw withdrawal threshold, AUC 0-6 h)", "setting": "[3]", "value": "comparable antinociceptive effects in males and females"}, {"measurement": "VEGFA-induced stimulus-aversion (time in vF-conditioned chamber), Figure S5", "setting": "[4]; 10 μM coinjected with VEGFA 10 nM", "value": "blocked by 10 μM 12h in males"}, {"measurement": "effect on VEGFA-induced aversion in CPA-paradigm", "setting": "[4]; 10 μM, male rats", "value": "showed significant reduction in VEGFA-induced aversion"}, {"measurement": "VEGFA-induced aversion (time in vF-conditioned chamber)", "setting": "[4]; 30 μM coinjected with VEGFA 10 nM, male and female rats", "value": "prevented significant stimulus-aversion from VEGFA in both sexes; also recorded: the aversion was prevented"}, {"measurement": "CPA-score vs VEGFA/vehicle", "setting": "[4]; 30 μM, female rats", "value": "did not show a statistically significant improvement"}]}
